Values quoted from earlier work as cited in US12128086B2, “Formulations and methods of use for alpha connexin c-terminal (ACT) peptides” (XEQUEL BIO, INC., priority 2012, dated 2024).
Read-outs that look alike come from different tables or passages of the source.

Columns and labels:
[1] = test system: full thickness excisional wounds; details: adult mice; 100 μM of ACT1 peptide; 5 mm full thickness excisional wounds
[2] = test system: full thickness excisional wounds; details: pigs; 100 μM of ACT1 peptide; 5 mm full thickness excisional wounds

Substance: Biotin-Ahx-Arg-Gln-Pro-Lys-lle-Trp-Phe-Pro-Asn-Arg-Arg-Lys-Pro-Trp-Lys-Lys-Arg-Pro-Arg-Pro-Asp-Asp-Leu-Glu-lle-OH [Peptide 328967]
- Wound healing versus vehicle control (in words) [1]: closed faster, appeared less swollen and inflamed, and healed with a smoother and less discolored appearance
- Wound healing versus vehicle control (in words) [2]: closed faster, appeared less swollen and inflamed, and healed with a smoother and less discolored appearance
